According to ChEMBL document CHEMBL6092154, “Design, synthesis, and evaluation of a novel TRAIL-activated HDAC6 inhibitor for the treatment of pulmonary fibrosis” (Bioorg Med Chem, 2024):
Activity calls are given as the source filed them. The calls are words filed in the database; no cut-off is given here.

Legend:
Histone deacetylase 8 = target: T1, Histone deacetylase 8 (Homo sapiens, UniProt Q9BY41); test: Inhibition of HDAC8 (unknown origin) incubated for 30 mins by fluorometric analysis
T1 sequence (Q9BY41 whole entry): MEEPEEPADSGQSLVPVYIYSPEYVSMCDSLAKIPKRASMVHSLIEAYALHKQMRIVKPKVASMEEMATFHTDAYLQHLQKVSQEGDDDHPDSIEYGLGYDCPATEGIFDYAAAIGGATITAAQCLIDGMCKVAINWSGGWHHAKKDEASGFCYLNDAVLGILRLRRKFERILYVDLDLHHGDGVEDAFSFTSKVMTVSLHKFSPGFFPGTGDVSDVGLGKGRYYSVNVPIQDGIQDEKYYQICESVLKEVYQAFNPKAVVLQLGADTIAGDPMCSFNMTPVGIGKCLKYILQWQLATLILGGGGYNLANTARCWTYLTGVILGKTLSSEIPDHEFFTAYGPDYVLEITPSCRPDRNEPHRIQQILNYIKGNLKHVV

[1] = target: T2, Protein deacetylase HDAC6 (Homo sapiens, UniProt Q9UBN7); test: Inhibition of HDAC6 (unknown origin) incubated for 30 mins by fluorometric analysis
T2 sequence (Q9UBN7 whole entry): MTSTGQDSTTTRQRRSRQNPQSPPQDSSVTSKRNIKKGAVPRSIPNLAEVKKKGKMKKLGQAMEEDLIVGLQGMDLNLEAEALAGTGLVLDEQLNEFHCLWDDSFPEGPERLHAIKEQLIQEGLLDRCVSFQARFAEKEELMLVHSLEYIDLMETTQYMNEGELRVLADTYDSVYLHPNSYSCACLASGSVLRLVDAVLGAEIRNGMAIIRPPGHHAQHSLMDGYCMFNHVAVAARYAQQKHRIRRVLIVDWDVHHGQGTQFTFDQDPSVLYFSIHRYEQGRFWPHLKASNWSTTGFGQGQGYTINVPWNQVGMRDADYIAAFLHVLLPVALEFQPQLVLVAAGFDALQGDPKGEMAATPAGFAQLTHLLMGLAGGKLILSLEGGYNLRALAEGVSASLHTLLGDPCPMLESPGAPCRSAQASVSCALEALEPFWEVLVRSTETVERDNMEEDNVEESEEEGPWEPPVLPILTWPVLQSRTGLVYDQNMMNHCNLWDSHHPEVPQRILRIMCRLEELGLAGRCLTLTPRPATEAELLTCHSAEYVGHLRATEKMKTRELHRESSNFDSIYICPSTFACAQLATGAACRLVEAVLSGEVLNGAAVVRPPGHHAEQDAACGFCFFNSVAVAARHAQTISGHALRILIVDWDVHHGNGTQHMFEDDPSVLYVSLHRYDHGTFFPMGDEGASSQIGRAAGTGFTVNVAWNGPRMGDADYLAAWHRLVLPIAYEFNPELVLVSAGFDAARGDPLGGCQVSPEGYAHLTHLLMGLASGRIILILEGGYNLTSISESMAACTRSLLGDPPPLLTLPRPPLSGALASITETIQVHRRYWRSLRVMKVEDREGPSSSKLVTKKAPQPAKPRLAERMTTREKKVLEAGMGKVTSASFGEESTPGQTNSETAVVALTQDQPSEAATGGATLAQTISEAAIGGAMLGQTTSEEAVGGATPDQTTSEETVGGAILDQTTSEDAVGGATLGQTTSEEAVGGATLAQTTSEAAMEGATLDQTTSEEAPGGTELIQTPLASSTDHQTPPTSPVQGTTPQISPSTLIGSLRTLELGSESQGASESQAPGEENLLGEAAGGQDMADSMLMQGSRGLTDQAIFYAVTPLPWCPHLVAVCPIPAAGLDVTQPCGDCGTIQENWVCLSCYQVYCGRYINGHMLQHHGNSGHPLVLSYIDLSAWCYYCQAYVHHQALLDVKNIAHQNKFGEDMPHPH

RPMI-8226 = test: Increase in DR5 protein expression in human RPMI-8226 cells incubated for 24 hrs by western blot analysis; assay type: functional, cell-based; conditions: dose 0.25-1 µM
Histone deacetylase 2 = Histone deacetylase 2 (Homo sapiens, UniProt Q92769); test: Inhibition of HDAC2 (unknown origin) at 1 uM incubated for 30 mins by fluorometric analysis
[2] = target: T3, Protein deacetylase HDAC6 (Homo sapiens) (UniProt Q9UBN7); test: Inhibition of HDAC6 in human RPMI-8226 cells assessed as increase in acetylated histone H3 level at 0.25 to 1 uM incubated for 24 hrs by western blot analysis; assay type: cell-based; conditions: dose 0.25-1 µM
T3 sequence (whole entry): T2 sequence (Q9UBN7 whole entry)

[3] = target: T4, Protein deacetylase HDAC6 (Mus musculus) (UniProt Q9Z2V5); test: In vivo inhibition of HDAC6 in bleomycin-induced idiopathic pulmonary fibrosis C57BL/6J mouse model assessed as increase in acetylated alpha-tubulin level in lung at 25 mg/kg, ig administered via gavage and measured on day 14 by western blot analysis; assay type: functional, organism-based; conditions: time 14.0 day
T4 sequence (whole entry): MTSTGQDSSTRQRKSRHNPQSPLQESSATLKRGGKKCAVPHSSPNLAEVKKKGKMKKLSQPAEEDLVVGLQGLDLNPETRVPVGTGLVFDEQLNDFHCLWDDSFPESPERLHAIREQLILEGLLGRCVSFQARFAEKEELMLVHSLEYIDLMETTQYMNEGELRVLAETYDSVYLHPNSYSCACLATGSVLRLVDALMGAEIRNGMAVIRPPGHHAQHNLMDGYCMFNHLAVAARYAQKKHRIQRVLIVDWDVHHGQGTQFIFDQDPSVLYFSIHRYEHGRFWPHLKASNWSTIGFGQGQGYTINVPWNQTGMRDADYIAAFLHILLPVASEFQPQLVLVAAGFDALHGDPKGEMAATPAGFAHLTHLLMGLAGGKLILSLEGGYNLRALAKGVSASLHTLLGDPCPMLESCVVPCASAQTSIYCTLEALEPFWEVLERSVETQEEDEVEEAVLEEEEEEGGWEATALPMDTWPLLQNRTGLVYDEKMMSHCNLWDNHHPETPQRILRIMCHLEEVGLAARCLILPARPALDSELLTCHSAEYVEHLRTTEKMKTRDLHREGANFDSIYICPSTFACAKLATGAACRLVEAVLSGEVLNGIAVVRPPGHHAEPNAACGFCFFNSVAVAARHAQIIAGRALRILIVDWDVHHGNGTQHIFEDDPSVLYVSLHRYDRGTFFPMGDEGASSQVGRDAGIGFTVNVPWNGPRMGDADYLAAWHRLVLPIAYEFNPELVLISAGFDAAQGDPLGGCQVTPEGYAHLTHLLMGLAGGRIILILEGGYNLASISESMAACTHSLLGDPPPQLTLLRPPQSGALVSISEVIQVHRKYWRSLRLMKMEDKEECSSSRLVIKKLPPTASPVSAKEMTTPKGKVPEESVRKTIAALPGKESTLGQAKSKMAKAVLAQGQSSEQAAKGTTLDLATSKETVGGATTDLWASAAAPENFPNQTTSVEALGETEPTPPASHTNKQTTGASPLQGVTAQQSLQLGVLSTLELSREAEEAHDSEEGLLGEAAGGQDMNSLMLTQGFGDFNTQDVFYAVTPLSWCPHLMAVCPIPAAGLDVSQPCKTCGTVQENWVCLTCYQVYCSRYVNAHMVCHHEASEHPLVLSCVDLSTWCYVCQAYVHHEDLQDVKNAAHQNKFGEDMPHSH

Sequence of Histone deacetylase 2 (Q92769 whole entry): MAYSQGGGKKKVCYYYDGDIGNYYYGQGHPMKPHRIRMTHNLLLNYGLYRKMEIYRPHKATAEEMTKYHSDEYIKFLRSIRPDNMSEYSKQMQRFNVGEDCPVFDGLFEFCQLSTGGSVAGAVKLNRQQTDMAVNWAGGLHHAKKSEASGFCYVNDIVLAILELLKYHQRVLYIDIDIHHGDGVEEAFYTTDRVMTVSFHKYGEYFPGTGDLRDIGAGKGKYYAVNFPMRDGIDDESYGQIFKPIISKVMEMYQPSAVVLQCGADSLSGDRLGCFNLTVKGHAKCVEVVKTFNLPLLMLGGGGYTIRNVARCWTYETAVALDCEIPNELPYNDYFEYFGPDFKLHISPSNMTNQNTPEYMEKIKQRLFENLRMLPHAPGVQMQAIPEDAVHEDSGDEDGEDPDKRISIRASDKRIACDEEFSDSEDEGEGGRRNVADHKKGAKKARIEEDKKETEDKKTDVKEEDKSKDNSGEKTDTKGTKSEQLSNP

IC50 (Histone deacetylase 8): 333 nM
IC50 [1]: 42.9 nM
inhibition (Histone deacetylase 2): 61.8%
inhibition [2]: Active; Less Affected
inhibition [3]: inactive
Compound: O=C(NO)c1ccc(CN2C(=O)C3=C(CCN(Cc4cccc(Cl)c4)C3)N3CCN=C23)cc1
Activity (RPMI-8226): Dose-dependent-effect; Higher Activity Compared To Positive Drug, 1 Um Compound Iic, Chidamide, Acy-1215
